For one assay, the target named is T1, Alpha-1A adrenergic receptor (Homo sapiens, UniProt P35348).
T1 sequence (P35348 whole entry): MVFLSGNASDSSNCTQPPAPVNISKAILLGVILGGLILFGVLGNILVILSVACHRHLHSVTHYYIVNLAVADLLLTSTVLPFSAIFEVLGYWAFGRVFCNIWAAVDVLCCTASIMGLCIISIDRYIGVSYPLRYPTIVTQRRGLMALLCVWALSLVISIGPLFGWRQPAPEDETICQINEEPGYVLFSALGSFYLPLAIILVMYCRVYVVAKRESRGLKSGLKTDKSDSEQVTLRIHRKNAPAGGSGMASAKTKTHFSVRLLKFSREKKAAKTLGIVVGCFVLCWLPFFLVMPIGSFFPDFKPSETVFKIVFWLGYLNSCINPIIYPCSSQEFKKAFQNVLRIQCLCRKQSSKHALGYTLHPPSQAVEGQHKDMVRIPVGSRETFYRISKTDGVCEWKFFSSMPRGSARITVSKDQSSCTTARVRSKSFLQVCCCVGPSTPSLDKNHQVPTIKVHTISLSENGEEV
Briefly: Binding affinity to adrenergic alpha1A receptor (unknown origin). Conditions: read-out: Ki.
Turning to `C[N+](C)(CCOc1ccccc1)CC1COC(c2ccccc2)(c2ccccc2)O1` (stereo unspecified), the Ki was found to be 24.5 nM.
Turning to `O=C1CC2(C=CN1CCN1CCN(c3ccccc3Cl)CC1)CCCC2`, the Ki came out at 43.1 nM.
Still for that read-out and setting: for `COc1cc2nc3c(c(N)c2cc1OC)CC(CNC(=O)c1ccoc1)C3` (stereo unspecified) the value was 158 nM; for `O=C1CC2(CCCC2)CC(=O)N1CCN1CCN(c2ccccc2)CC1`, 2680 nM; for `CC(CN1CCN(c2cc(Cl)ccc2Cl)CC1)N1C(=O)CC2(CCCC2)CC1=O` (stereo unspecified), 149 nM.
For `COc1cccc(OC)c1OCCN[C@H]1C[C@@H](c2ccccc2)c2ccccc2S1`, the Ki is 0.08 nM.
Same read-out and setting: for `COc1ccccc1N1CCN(CC(O)COc2cccc3ccccc23)CC1` (stereo unspecified) [NAFTOPIDIL] the value was 5.88 nM.
Take `c1ccc(OCCNC2COCC(c3ccccc3)(c3ccccc3)O2)cc1` (stereo unspecified): the Ki came to 170 nM.
Still for that read-out and setting: next, `COc1ccccc1N1CCN(CC2COC3(CCCCC3)O2)CC1` (stereo unspecified): 91.2 nM; `CC(C)Oc1ccccc1N1CCN(CCN2C(=O)CC3(CCCC3)CC2=O)CC1`: 2.83 nM; `COc1cccc(OC)c1OCCN[C@H]1C[C@H](c2ccccc2)c2ccccc2S1`: 2.34 nM.
The same measure, in the same setting: next, `COc1cc2nc3c(c(N)c2cc1OC)CCC(CNC(=O)c1ccoc1)C3` (stereo unspecified): 95.5 nM; `O=C1CC2(CCCC2)C(=O)N1CCN1CCN(c2cc(Cl)ccc2Cl)CC1`: 54.6 nM; `O=C1CC2(CCCC2)CC(=O)N1CCCCN1CCN(c2cc(Cl)ccc2Cl)CC1`: 1.45 nM.
Same read-out and setting: next, `c1ccc(OCCN[C@H]2COC[C@H](c3ccccc3)O2)cc1`: 407 nM.
For `Cc1ccc(Cl)c(N2CCN(CCN3C(=O)CC4(CCCC4)CC3=O)CC2)c1`, the Ki was found to be 100 nM.
On the same count and under the same terms, next, `COc1ccccc1N1CCN(CC2CO[C@H](c3ccccc3)O2)CC1` (stereo partly specified): 28.8 nM; `COc1ccccc1N1CCN(CC2CO[C@@H](c3cccc4ccccc34)O2)CC1` (stereo partly specified): 36.3 nM.
On the same count and under the same terms, next, `O=C1CC2(CCCC2)CC(=O)N1CCN1CCCN(c2ccccc2Cl)CC1`: 236 nM.
Still for that read-out and setting: for `O=C1CC2(CCCC2)CCN1CCN1CCN(c2ccccc2Cl)CC1` the value was 70 nM; for `COc1cccc(OC)c1OCCNC1COCC(c2ccccc2)(c2ccccc2)O1` (stereo unspecified), 339 nM; for `COc1ccccc1N1CCN(CCN2C=CC3(CCCC3)CC2=O)CC1`, 23.4 nM.
As to `COc1cc2nc3c(c(N)c2cc1OC)CCC(CNCOc1c(OC)cccc1OC)C3` (stereo unspecified), the Ki came to 1700 nM.
For the compound `COc1cccc(OC)c1OCCN[C@H]1COC[C@H](c2ccccc2)O1`, the Ki was 468 nM.
Regarding `COc1cccc(OC)c1OCCN[C@H]1CO[C@H](c2ccccc2)CO1`, the Ki was determined as 513 nM.
Turning to `COc1cccc(OC)c1OCCNC[C@@H]1C(=O)c2ccccc2C[C@H]1c1ccccc1`, the Ki is 8.7 nM.
The same measure, in the same setting: for `c1ccc(OCCN[C@H]2CO[C@H](c3ccccc3)CO2)cc1` the value was 537 nM; for `N#Cc1ccccc1N1CCN(CCN2C(=O)CC3(CCCC3)CC2=O)CC1`, 171 nM; for `c1ccc(OCCNC2COC(c3ccccc3)(c3ccccc3)CO2)cc1` (stereo unspecified), 224 nM.
The same measure, in the same setting: next, `O=C1CC2(CCCC2)CC(=O)N1CCN1CCN(c2cc(F)ccc2Cl)CC1`: 86.2 nM; `N#Cc1ccc(Cl)cc1N1CCN(CCN2C(=O)CC3(CCCC3)CC2=O)CC1`: 403 nM; `COc1ccccc1OCCNC1COC(c2ccccc2)(c2ccccc2)CO1` (stereo unspecified): 74.1 nM.
Still for that read-out and setting: for `COc1cccc(OC)c1OCCN[C@H]1C[C@@H](c2ccccc2)c2ccccc2O1` the value was 0.05 nM.
For the compound `COc1ccccc1N1CCN(CC2CO[C@H](c3cccc4ccccc34)O2)CC1` (stereo partly specified), the Ki worked out at 7.94 nM.
Still for that read-out and setting: for `Cc1ccc(C)c(N2CCN(CCN3C(=O)CC4(CCCC4)CC3=O)CC2)c1` the value was 95.4 nM.
On the same count and under the same terms, for `CN(CCOc1ccccc1)CC1COC(c2ccccc2)(c2ccccc2)O1` (stereo unspecified) the value was 33.9 nM.

Still in this assay, the particulars now being: read-out: pKi (converted).
Turning to `O=C1CC2(C=CN1CCN1CCN(c3ccccc3Cl)CC1)CCCC2`, the Ki was 43.7 nM.
The same measure, in the same setting: next, `CC(CN1CCN(c2cc(Cl)ccc2Cl)CC1)N1C(=O)CC2(CCCC2)CC1=O` (stereo unspecified): 151 nM.
On the same count and under the same terms, for `COc1cccc(OC)c1OCCN[C@H]1C[C@@H](c2ccccc2)c2ccccc2S1` the value was 0.0891 nM.
For the compound `COc1cc2nc3c(c(N)c2cc1OC)CCC(CNC(=O)c1ccoc1)C3` (stereo unspecified), the Ki is 2570 nM.
On the same count and under the same terms, for `N#Cc1ccc(Cl)cc1N1CCN(CCN2C(=O)CC3(CCCC3)CC2=O)CC1` the value was 407 nM.
